Results as given in patent publication US10864168B2, “Bioactive delivery vehicles” (The Regents of the University of California, priority 2014, dated 2020).

Test system: inactivated yeast
Assay: Encapsulation of bioactives into inactivated yeast cells (conventional diffusion, vacuum infusion, pressure)
Format: physicochemical, Saccharomyces cerevisiae
From the text: Prior to encapsulation of bioactives, selected strains of both yeast and algal cells are inactivated with a chemical treatment. Chemical inactivation of yeast or algal cells stops the metabolic processes while preserving the structure and chemical composition of the cells. […] The concentration of ethanol is selected based on the results of the previous study. Briefly, 1 gm of yeast or algal cells pellet is suspended in the 35% ethanolic solution of the selected bioactive compound. […] We have determined the % ethanol to achieve sufficient encapsulation of the selected encapsulated bioactive compounds using both the vacuum and high pressure assisted encapsulation process. Yeast or algal cell samples suspended in the ethanolic solution with the bioactive compound are sealed in boilable vacuum bags (Prime Source) at 99% vacuum (Ultravac 250, Koch Equipment LLC). […] The sealed samples are covered with aluminum foil to prevent any photo-degradation of the bioactives and incubated at room temperature (25° C.) for 10 minutes. Samples are emptied into 50 mL centrifuge tubes, centrifuged at 2200 rpm for 10 minutes to pellet the cells and the pelleted cells are washed twice with ethanolic solution (35%) and then five times with excess water to remove unencapsulated bioactives. […] Samples are emptied into 50 mL centrifuge tubes, centrifuged to pellet the cells (2200 rpm for 10 minutes) and the pelleted cells are washed twice with ethanolic solution (35%) and then five times with excess water to remove unencapsulated bioactives. Briefly, yeast or algal samples in a 35% ethanolic solution of the selected bioactive compound are covered with a single layer of aluminum foil to prevent photolysis. Samples are then placed into a rotary incubator at 50° C. and 200 rpm for 24 hours. After removal from the incubator, cells are removed by centrifugation at 2000 rpm for 10 minutes. The supernatant is decanted to isolate the pelleted cells and the pelleted cells are washed as described above to remove unencapsulated bioactives. Cells are sonicated to disrupt the cellular structure. A methanol extraction is utilized to extract the encapsulated bioactives from the disrupted yeast or algal cells. 0.05 g of cells (wet basis) with encapsulated bioactives are sonicated to disrupt cellular structure and subsequently incubated with 1 mL methanol. Samples are then briefly vortexed and centrifuged at 14,000 rpm for 10 minutes. The concentration of bioactive compound dissolved in the organic phase is measured using UV-vis spectrophotometer. […] Measuring loading of these bioactive compounds in various emulsions and nanoparticles has been described. The encapsulation efficiency is determined as follows: [formula] where CE is the mass of extracted bioactive from the cells after encapsulation and CT is the amount of bioactive initially added to the cells. We have developed an innovative bioencapsulation process that provides rapid and efficient infusion of bioactives in isolated cells and lipid bodies. In this process, yeast or algal cells incubated in a solution containing bioactive were subjected to a vacuum (97% vacuum) or mild-high hydrostatic pressure (35-100 MPa) for ˜5-10 minutes. […] The results of these measurements were compared with the conventional process used for encapsulation of bioactive compounds in yeast cells.

COc1cc(/C=C/C(=O)CC(=O)/C=C/c2ccc(O)c(OC)c2)ccc1O [Curcumin, curcumin]
Mass of Encapsulated Bioactive in Yeast (100 mM PBS, pH = 6.5, Conventional Diffusion, saturated solution, 35% v/v ethanol): 0.064 mg/g | Mass of Encapsulated Bioactive in Yeast (100 mM PBS, pH = 6.5, HPP (200 MPa), saturated solution, 35% v/v ethanol): 0.242 mg/g | Mass of Encapsulated Bioactive in Yeast (100 mM PBS, pH = 6.5, Vacuum Infusion, saturated solution, 35% v/v ethanol): 0.305 mg/g | Mass of Encapsulated Bioactive in Yeast (2% Tween 20 in 100 mM Tris Buffer, pH = 8, Conventional Diffusion, saturated solution, 35% v/v ethanol): 0.292 mg/g | Mass of Encapsulated Bioactive in Yeast (2% Tween 20 in 100 mM Tris Buffer, pH = 8, HPP (200 MPa), saturated solution, 35% v/v ethanol): 0.415 mg/g | Mass of Encapsulated Bioactive in Yeast (2% Tween 20 in 100 mM Tris Buffer, pH = 8, Vacuum Infusion, saturated solution, 35% v/v ethanol): 0.483 mg/g | Mass of Encapsulated Bioactive in Yeast (Commercial Baker's Yeast, vacuum infused, 35% ethanol): 0.392 mg/g | Mass of Encapsulated Bioactive in Yeast (Conventional Diffusion, Single Loading): 0.134 mg/g | Mass of Encapsulated Bioactive in Yeast (S. Cerevisiae (68-115), lipogenesis Induced, vacuum infused, 35% ethanol): 0.260 mg/g | Mass of Encapsulated Bioactive in Yeast (S. Cerevisiae (68-115), lipogenesis Suppressed, vacuum infused, 35% ethanol): 0.238 mg/g | Mass of Encapsulated Bioactive in Yeast (Vacuum, Dual Loading (curcumin and fisetin added together)): 0.442 mg/g
